Results published in US7705021B2, “Isoindolone compounds, compositions containing the same, and methods of use thereof for the treatment of viral infections related to the etiology of cancer” (Fox Chase Cancer Center, priority 2005, dated 2010).

Columns and labels:
[1] = system: HLR (HeLa Luciferase Reporter)-Elk-1 cells; assay: MAPK signaling reporter assay (Elk-1 luciferase, EGF-stimulated); format: cell-based; details: Homo sapiens, 5 h, HLR-Elk-1 cells, EGF 10 ng/ml stimulation, luciferase after five hours
Description: The present example describes assays for assessing MAPK pathway signaling modulation mediated by the compounds and compositions described herein. Specifically, compounds of the invention have been assessed in an ELK-1 luciferase reporter assay in HeLa cells to obtain an IC50 measurement as well as to assess their anti-proliferative capacity. Following 72 hours of serum starvation, HLR (HeLa Luciferase Reporter)-Elk-1 cells (30,000 cells per well) were incubated for one hour in the presence or absence of various concentration of inhibitors prior to stimulation of Elk1 release by EGF addition (10 ng/ml). The amount of Elk1 release was measured after five hours using Bright-Glo Luciferase assay (Promega Co., Madison, Wis.).

[2] = system: HCT-116 cells; assay: Proliferation assay (WST-1); format: cell-based; details: Homo sapiens, HCT-116, 48 hours
Description: Five thousand HCT-116 cells were seeded into each well of a 96 well flat bottom plate and incubated over night at 37° C. in 5% CO2. The growth of plated cells was measured by adding […] WST-1 reagent (Roche Applied Sciences, Germany) to three control wells and measuring OD650 and OD450 absorbances with a SpectraMax250 plate reader. If the OD650-OD450 values were above 0.5, the remainder of the plate was used for incubation with compounds or solvent control for 48 hours. After this incubation, WST-1 reagent was added to the wells and OD650-OD450 values were calculated as before. Triplicate wells were assayed for each condition and standard deviation was determined; all experiments were performed at least three times independently.

| IC50 [1] [µM] | GI50 [2] [µM] | SMILES | inhibition at 60 µM [2] [%] |
| --- | --- | --- | --- |
| 22.2 ± 6.8 | 22.2 ± 5.3 | COc1cc(C2(OC)c3ccccc3C(=O)N2CCc2ccccn2)ccc1OCc1ccccc1 (stereo not drawn) [Compound 7, 3-(4-Benzyloxy-3-methoxy-phenyl)-3-methoxy-2-(2-pyridin-2-yl-ethyl)-2,3-dihydro-isoindol-1-one] |  |
| 31.8 ± 6.1 |  | COc1cc(C2c3ccccc3C(=O)N2CCc2ccccn2)ccc1OCc1ccccc1 (stereo not drawn) [Compound 8, 3-(4-Benzyloxy-3-methoxy-phenyl)-2-(2-pyridin-2-yl-ethyl)-2,3-dihydro-isoindol-1-one] | 21 |
| 43 ± 6.9 |  | COc1cc(CN2C(=O)c3ccccc3C2Cc2ccccn2)ccc1OCc1ccccc1 (stereo not drawn) [Compound 11, 2-(4-benzyloxy-3-methoxy-benzyl)-3-(2-pyridin-2-yl-methyl)-2,3-dihydro-isoindol-1-one] | 26 |
